According to PubChem BioAssay (NCI):
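Dose response: 5 concentrations. Exposure: 48 h. Format: 96-well plates. Endpoint: linear interpolation; highest concentration if not reached. TGI: concentration producing complete growth inhibition.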

Legend:
Assay in all cases: inhibition of tumour cell growth, NCI panel, 48 h
[1] = test system: UACC-62 melanoma
[2] = test system: EKVX NSCLC
[3] = test system: SW-620 colon
[4] = test system: ACHN renal
[5] = test system: CAKI-1 renal
[6] = test system: OVCAR-4 ovarian
[7] = test system: NCI-H460 lung
[8] = test system: DMS 114 small cell lung
[9] = test system: HOP-92 NSCLC
[10] = test system: DMS 273 small cell lung
[11] = test system: HCC-2998 colon
[12] = test system: U251 CNS
[13] = test system: UO-31 renal
[14] = test system: COLO 205 colon
[15] = test system: SNB-75 CNS
[16] = test system: HOP-18 NSCLC
[17] = test system: SN12C renal
[18] = test system: HOP-62 NSCLC
[19] = test system: SK-MEL-28 melanoma
[20] = test system: SK-OV-3 ovarian
[21] = test system: KM20L2 colon
[22] = test system: SNB-19 CNS
[23] = test system: IGROV1 ovarian
[24] = test system: MOLT-4 leukemia
[25] = test system: SF-295 CNS
[26] = test system: TK-10 renal
[27] = test system: NCI-H23 lung
[28] = test system: HCT-15 colon
[29] = test system: DLD-1 colon
[30] = test system: OVCAR-3 ovarian
[31] = test system: A549 NSCLC
[32] = test system: OVCAR-8 ovarian
[33] = test system: 786-0 renal
[34] = test system: HT29 colon
[35] = test system: SNB-78 CNS
[36] = test system: SF-268 CNS
[37] = test system: M14 melanoma
[38] = test system: LXFL 529 NSCLC
[39] = test system: LOX IMVI melanoma
[40] = test system: RXF 393 renal
[41] = test system: MALME-3M melanoma
[42] = test system: RPMI-8226 leukemia
[43] = test system: CCRF-CEM leukemia
[44] = test system: HCT-116 colon
[45] = test system: K-562 leukemia
[46] = test system: UACC-257 melanoma
[47] = test system: A498 renal
[48] = test system: SK-MEL-5 melanoma
[49] = test system: SR leukemia
[50] = test system: XF 498 CNS
[51] = test system: NCI-H226 lung
[52] = test system: HL-60(TB) leukemia
[53] = test system: SK-MEL-2 melanoma
[54] = test system: SF-539 CNS
[55] = test system: M19-MEL melanoma
[56] = test system: OVCAR-5 ovarian
[57] = test system: KM12 colon
[58] = test system: MDA-MB-231 breast
[59] = test system: MDA-N
[60] = test system: T-47D breast
[61] = test system: NCI/ADR-RES ovarian
[62] = test system: MCF7 breast
[63] = test system: BT-549 breast
[64] = test system: NCI-H522 lung
[65] = test system: HS 578T breast
[66] = test system: DU-145 prostate
[67] = test system: PC-3 prostate
[68] = test system: MDA-MB-435

CC(C)COC1Sc2ccccc2S1
TGI [1]: 25.8 µM | TGI [2]: 38.1 µM | TGI [3]: 88.3 µM | TGI [4]: 30 µM | TGI [5]: 52.4 µM | TGI [6]: 53.4 µM | TGI [7]: 24.6 µM | TGI [8]: 39.1 µM | TGI [9]: 28.1 µM | TGI [10]: 43.1 µM | TGI [11]: 45.3 µM | TGI [12]: 35.9 µM | TGI [13]: 29.4 µM | TGI [14]: 89.2 µM | TGI [15]: 6.36 µM | TGI [16]: 30.2 µM | TGI [17]: 36.2 µM | TGI [18]: 41.3 µM | TGI [19]: 33.7 µM | TGI [20]: 43.2 µM | TGI [21]: 36.2 µM | TGI [22]: 32.8 µM | TGI [23]: 32.3 µM | TGI [24]: > 100 µM | TGI [25]: 31.3 µM | TGI [26]: 43 µM | TGI [27]: 53.4 µM | TGI [28]: 66 µM | TGI [29]: 35.1 µM | TGI [30]: 34.2 µM | TGI [31]: 46.6 µM | TGI [32]: > 100 µM | TGI [33]: 50 µM | TGI [34]: 36.6 µM | TGI [35]: 65.1 µM | TGI [36]: 66.3 µM | TGI [37]: 52.4 µM | TGI [38]: 49.3 µM | TGI [39]: 37.9 µM | TGI [40]: 34.6 µM | TGI [41]: 57.2 µM | TGI [42]: > 100 µM | TGI [43]: > 100 µM

COc1cc([C@@H]2c3cc4c(cc3[C@@H](OC(=O)c3cccc(N)c3)C3COC(=O)[C@@H]32)OCO4)cc(OC)c1O (some centres not stated)
TGI [1]: 24.1 µM | TGI [2]: > 100 µM | TGI [44]: > 100 µM | TGI [3]: > 100 µM | TGI [45]: > 100 µM | TGI [46]: > 77.3 µM | TGI [47]: 16.6 µM | TGI [4]: 15.3 µM | TGI [5]: 29.6 µM | TGI [6]: > 100 µM | TGI [48]: 14 µM | TGI [7]: 20.4 µM | TGI [49]: 17.9 µM | TGI [50]: 35 µM | TGI [51]: 6.09 µM | TGI [10]: > 100 µM | TGI [11]: 28.7 µM | TGI [52]: > 41.2 µM | TGI [12]: 22.9 µM | TGI [13]: 26.4 µM | TGI [14]: > 45.6 µM | TGI [15]: > 100 µM | TGI [17]: 31.3 µM | TGI [18]: 18 µM | TGI [19]: > 100 µM | TGI [20]: > 75.2 µM | TGI [21]: 26.8 µM | TGI [53]: 73.3 µM | TGI [22]: > 100 µM | TGI [54]: 13.8 µM | TGI [23]: > 64.8 µM | TGI [24]: > 59.8 µM | TGI [25]: 35.4 µM | TGI [26]: > 100 µM | TGI [27]: 6.2 µM | TGI [28]: > 52.6 µM | TGI [29]: > 100 µM | TGI [55]: > 100 µM | TGI [30]: > 100 µM | TGI [31]: 25.9 µM | TGI [32]: > 100 µM | TGI [56]: 60.1 µM | TGI [33]: 28.9 µM | TGI [57]: > 73.5 µM | TGI [34]: 24.5 µM | TGI [35]: > 100 µM | TGI [36]: > 61.1 µM | TGI [37]: 28.3 µM | TGI [38]: 51 µM | TGI [39]: 33.8 µM | TGI [40]: 83.5 µM | TGI [41]: > 56.3 µM | TGI [42]: 43.9 µM | TGI [43]: > 43 µM

CCS(=O)c1c2cc(OC)ccc2nc2ccc(OC)cc12 (configuration not stated)
TGI [1]: 33.4 µM | TGI [2]: 32.3 µM | TGI [44]: 7.52 µM | TGI [3]: > 65.9 µM | TGI [45]: 5.81 µM | TGI [46]: 12 µM | TGI [47]: 33.6 µM | TGI [4]: 13 µM | TGI [5]: 9.44 µM | TGI [6]: 36.1 µM | TGI [48]: 30.3 µM | TGI [7]: > 68 µM | TGI [49]: > 25 µM | TGI [58]: 11.2 µM | TGI [9]: > 53.1 µM | TGI [51]: 47.8 µM | TGI [11]: 41.8 µM | TGI [52]: > 100 µM | TGI [12]: > 55.3 µM | TGI [13]: 13.1 µM | TGI [14]: 15.4 µM | TGI [15]: 38.2 µM | TGI [59]: 16.3 µM | TGI [17]: 8.99 µM | TGI [18]: 51.1 µM | TGI [19]: 23.4 µM | TGI [20]: 47.5 µM | TGI [53]: 35.3 µM | TGI [22]: 45.4 µM | TGI [54]: > 59 µM | TGI [60]: 5.85 µM | TGI [61]: 44.6 µM | TGI [23]: 10 µM | TGI [24]: > 23.8 µM | TGI [62]: > 100 µM | TGI [25]: 63.4 µM | TGI [26]: 10.3 µM | TGI [27]: 19.9 µM | TGI [28]: > 52.5 µM | TGI [63]: 31.9 µM | TGI [30]: 14.9 µM | TGI [31]: 51.1 µM | TGI [32]: 15.5 µM | TGI [64]: 3.97 µM | TGI [56]: 41.7 µM | TGI [33]: 6.42 µM | TGI [65]: 38.9 µM | TGI [57]: 41 µM | TGI [34]: 10 µM | TGI [36]: > 62 µM | TGI [66]: 6.49 µM | TGI [37]: 37.6 µM | TGI [67]: 24.9 µM | TGI [39]: > 100 µM | TGI [68]: 26.4 µM | TGI [40]: 17.2 µM | TGI [41]: 12.6 µM | TGI [42]: 16.5 µM | TGI [43]: > 25.6 µM

CCOC(=O)OC1C(Br)C2CCC1(C)C2(C)C (configuration not stated)
TGI [1]: 32.1 µM | TGI [2]: 29.4 µM | TGI [44]: 20.9 µM | TGI [3]: 30.8 µM | TGI [45]: 20.1 µM | TGI [46]: 29.5 µM | TGI [4]: 29.2 µM | TGI [6]: 25.1 µM | TGI [48]: 27.6 µM | TGI [7]: 16.6 µM | TGI [49]: 5.83 µM | TGI [58]: 24.9 µM | TGI [9]: 27.6 µM | TGI [51]: 28.1 µM | TGI [11]: 25.1 µM | TGI [52]: 20.1 µM | TGI [12]: 26.6 µM | TGI [13]: 24.6 µM | TGI [14]: 26.2 µM | TGI [15]: 24.6 µM | TGI [59]: 28.5 µM | TGI [17]: 28.1 µM | TGI [18]: 31.2 µM | TGI [19]: 29.3 µM | TGI [20]: 29.5 µM | TGI [22]: 28.3 µM | TGI [54]: 28 µM | TGI [60]: 30.3 µM | TGI [61]: 32.7 µM | TGI [23]: 32.8 µM | TGI [24]: 16.6 µM | TGI [62]: 31.3 µM | TGI [25]: 29.5 µM | TGI [26]: 27.8 µM | TGI [27]: 31.9 µM | TGI [28]: 27.5 µM | TGI [63]: 31.3 µM | TGI [30]: 28.8 µM | TGI [31]: 30.1 µM | TGI [32]: 31.7 µM | TGI [64]: 30.2 µM | TGI [56]: 31.7 µM | TGI [33]: 28.8 µM | TGI [65]: 32.5 µM | TGI [57]: 28.4 µM | TGI [34]: 18.6 µM | TGI [36]: 29.6 µM | TGI [66]: 33 µM | TGI [37]: 25.6 µM | TGI [67]: 23.6 µM | TGI [39]: 18.9 µM | TGI [68]: 23.6 µM | TGI [40]: 25.1 µM | TGI [41]: 31.3 µM | TGI [42]: 20.7 µM | TGI [43]: 17.3 µM
